pEC50, pIC50: −log10 of the molar value.
Tests used:
[1] = test system: Hepatitis C virus; test: Antiviral activity against HCV 1a replicon in presence of fetal calf serum; assay type: functional, organism-based, Hepacivirus hominis; settings: subtype 1a
[2] = Inhibition of HCV 1a NS5B polymerase; design: species or system Hepatitis C virus subtype 1a
[3] = test system: Hepatitis C virus; test: Inhibition of HCV 1b NS5B polymerase; design: species or system Hepatitis C virus subtype 1b

Compound	pEC50 [1]	pIC50 [2]	pIC50 [3]
CC1(C/C=C/c2ccccc2)C(=O)C(C2=NS(=O)(=O)c3cc(NS(C)(=O)=O)ccc3N2)=C(O)c2ccccc21 (stereo not drawn)	–	6.34	5.73
CC1(CC=C2CCC2)C(=O)C(C2=NS(=O)(=O)c3cc(NS(C)(=O)=O)ccc3N2)=C(O)c2ccccc21 (stereo not drawn)	5.92	7.06	6.37
CC1(CC=C2CCCC2)C(=O)C(C2=NS(=O)(=O)c3cc(NS(C)(=O)=O)ccc3N2)=C(O)c2ccccc21 (stereo not drawn)	5.83	7.03	6.26
CC1(CC=C2CCCCC2)C(=O)C(C2=NS(=O)(=O)c3cc(NS(C)(=O)=O)ccc3N2)=C(O)c2ccccc21 (stereo not drawn)	–	6.71	6.04
CCOC(=O)/C=C/CC1(C)C(=O)C(C2=NS(=O)(=O)c3cc(NS(C)(=O)=O)ccc3N2)=C(O)c2ccccc21 (stereo not drawn)	< 5.00	5.97	5.23
CC1(C)C(=O)C(C2=NS(=O)(=O)c3cc(NS(C)(=O)=O)ccc3N2)=C(O)c2ccccc21	–	6.03	–
CC1(CCCc2ccccc2)C(=O)C(C2=NS(=O)(=O)c3cc(NS(C)(=O)=O)ccc3N2)=C(O)c2ccccc21 (stereo not drawn)	–	6.94	6.55
CC1(CCCO)C(=O)C(C2=NS(=O)(=O)c3cc(NS(C)(=O)=O)ccc3N2)=C(O)c2ccccc21 (stereo not drawn)	6.07	–	–
CC(C)=CC[C@]1(C)C(=O)C(C2=NS(=O)(=O)c3cc(NS(C)(=O)=O)ccc3N2)=C(O)c2ccccc21	–	6.15	–
CC1(CC(O)CO)C(=O)C(C2=NS(=O)(=O)c3cc(NS(C)(=O)=O)ccc3N2)=C(O)c2ccccc21 (stereo not drawn)	–	6.35	–
CC(C)CCC1(CCC(C)C)C(=O)C(C2=NS(=O)(=O)c3cc(NS(C)(=O)=O)ccc3N2)=C(O)c2ccccc21	6.37	7.17	–

The remaining compounds from weak to strong by pIC50 [2], led by results:

pEC50 [1]	pIC50 [2]	pIC50 [3]	Compound
5.57	7.24	6.71	CC1(CCC2CCCCC2)C(=O)C(C2=NS(=O)(=O)c3cc(NS(C)(=O)=O)ccc3N2)=C(O)c2ccccc21 (stereo not drawn)
5.10	7.37	6.71	CC(C)(O)CCC1(C)C(=O)C(C2=NS(=O)(=O)c3cc(NS(C)(=O)=O)ccc3N2)=C(O)c2ccccc21 (stereo not drawn)
5.66	7.41	7.15	CC(C)(Cl)CCC1(C)C(=O)C(C2=NS(=O)(=O)c3cc(NS(C)(=O)=O)ccc3N2)=C(O)c2ccccc21 (stereo not drawn)
6.63	7.42	6.83	CC(C)=CCC1(C)C(=O)C(C2=NS(=O)(=O)c3cc(NS(C)(=O)=O)ccc3N2)=C(O)c2ccccc21 (stereo not drawn)
6.49	7.49	7.15	CC1(CCC2CCCC2)C(=O)C(C2=NS(=O)(=O)c3cc(NS(C)(=O)=O)ccc3N2)=C(O)c2ccccc21 (stereo not drawn)
6.80	7.68	7.40	CC1(CC2CC2)C(=O)C(C2=NS(=O)(=O)c3cc(NS(C)(=O)=O)ccc3N2)=C(O)c2ccccc21 (stereo not drawn)
6.74	7.70	–	CCCC1(C)C(=O)C(C2=NS(=O)(=O)c3cc(NS(C)(=O)=O)ccc3N2)=C(O)c2ccccc21 (stereo not drawn)
6.87	7.72	7.49	CC(C)=CC[C@@]1(C)C(=O)C(C2=NS(=O)(=O)c3cc(NS(C)(=O)=O)ccc3N2)=C(O)c2ccccc21
6.16	7.74	6.65	C=CCC1(C)C(=O)C(C2=NS(=O)(=O)c3cc(NS(C)(=O)=O)ccc3N2)=C(O)c2ccccc21 (stereo not drawn)
6.72	7.80	7.44	CC1(CCC2CCC2)C(=O)C(C2=NS(=O)(=O)c3cc(NS(C)(=O)=O)ccc3N2)=C(O)c2ccccc21 (stereo not drawn)
7.77	8.40	8.15	CC(C)CCC1(C)C(=O)C(C2=NS(=O)(=O)c3cc(NS(C)(=O)=O)ccc3N2)=C(O)c2ccccc21 (stereo not drawn)

Reference: ChEMBL document CHEMBL1139154, “Inhibitors of HCV NS5B polymerase: synthesis and structure-activity relationships of unsymmetrical 1-hydroxy-4,4-dialkyl-3-oxo-3,4-dihydronaphthalene benzothiadiazine derivatives” (Bioorg Med Chem Lett, 2007)
